Laboratory results taken from US4141986A, “Antibiotics 890A2 and 890A5” (Merck & Co., Inc., priority 1977, dated 1979).

Tested on: Vibrio percolans ATCC 8461
Test: Assay procedure for 890 Assay Units, disc-diffusion with cephaloridine standard
Assay type: cell-based
Protocol: A conventional agar plate disc-diffusion method is employed using Vibrio percolans ATCC 8461 as tester organism. Cephaloridine is employed as a standard. Plates containing Vibrio percolans ATCC 8461 are prepared as follows. A culture of Vibrio percolans ATCC 8461 is incubated in nutrient broth-yeast extract overnight on a rotary shaker at 28° C. and then diluted to a density of 60% transmittance at 660 nm. A 33.2 ml. portion of this diluted culture is added to 1 liter of a medium composed of nutrient agar plus 0.2% yeast extract maintained at 46° C. The inoculated agar-containing medium is poured into 100 × 15 mm. plastic-petri dishes, 10 ml. per dish, chilled, and maintained at 2°-4° C. for up to 5 days before use.
The concentration of cephaloridine which is equivalent to 1 unit/ml. of 890A is deterined by assay on plates prepared as above, but containing 5 ml. of inoculated medium per plate, as follows. Four concentrations of cephaloridine constitute the standard -- 3.12, 6.25, 12.5 and 25 mcg per ml. with the 12.5 mcg per ml. as a reference solution. The zone diameters on a 5 ml. plate for the standard are as follows:
A unit is defined as the amount of antibiotic per ml. producing a 25 mm. zone of inhibition on a 5 ml. plate as described in section I above. Therefore, in this assay a concentration of 2.5 mcg per ml. of cephaloridine is considered equivalent to 1 unit of 890A per ml. Since the slope of the line for cephaloridine is 4.0 calculations of the potency of a sample are made using a slope of 4.0.

For O=C(Cc1cccs1)N[C@@H]1C(=O)N2C(C(=O)[O-])=C(C[n+]3ccccc3)CS[C@H]12 [cephaloridine, Cephaloridine], the “concentration considered equivalent to 1 unit of 890A per ml.” value (25 mm. zone of inhibition on a 5 ml. plate) was 2.5 mcg per ml, the zone of inhibition at 3.12 µg/mL (Comamonas terrigena, ATCC8461, 3.12 mcg./ml., 5 ml. plate, read-out: Zone Diameter) was 16.8 mm and the zone of inhibition at 6.25 µg/mL (Comamonas terrigena, ATCC8461, 6.25 mcg./ml., 5 ml. plate, read-out: Zone Diameter) was 22.3 mm. For the same compound, the zone of inhibition at 12.5 µg/mL (Comamonas terrigena, ATCC8461, 12.5 mcg./ml., 5 ml. plate, read-out: Zone Diameter) was 25 mm, the zone of inhibition at 25 µg/mL (Comamonas terrigena, ATCC8461, 25 mcg./ml., 5 ml. plate, read-out: Zone Diameter) was 29.6 mm and the “slope of the line” value (zone diameter against concentration of the standard) was 4.0.
